In patent publication US20240174662A1, “SMALL MOLECULE INHIBITORS OF SALT INDUCIBLE KINASES” (Janssen Biotech, Inc., priority 2021, published 2024):

Target: SIK2 (Homo sapiens (Human), UniProt Q9H0K1)
Experiment: SIK2 Enzymatic Assay Version 2 (High ATP)
Format: biochemical
Details: 3 mM ATP and 200 μM HDAC5tide final, ADP-Glo Max luminescence
Outline: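 Luminescent ADP-Glo Max read-out: depletion reagent 2 h, then detection reagent 1 h. Before the reaction, compounds were incubated 30 min with enzyme added at 6 nM (twice final concentration), with all steps at room temperature.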

Sequence of SIK2 (Q9H0K1 whole entry, species assumed): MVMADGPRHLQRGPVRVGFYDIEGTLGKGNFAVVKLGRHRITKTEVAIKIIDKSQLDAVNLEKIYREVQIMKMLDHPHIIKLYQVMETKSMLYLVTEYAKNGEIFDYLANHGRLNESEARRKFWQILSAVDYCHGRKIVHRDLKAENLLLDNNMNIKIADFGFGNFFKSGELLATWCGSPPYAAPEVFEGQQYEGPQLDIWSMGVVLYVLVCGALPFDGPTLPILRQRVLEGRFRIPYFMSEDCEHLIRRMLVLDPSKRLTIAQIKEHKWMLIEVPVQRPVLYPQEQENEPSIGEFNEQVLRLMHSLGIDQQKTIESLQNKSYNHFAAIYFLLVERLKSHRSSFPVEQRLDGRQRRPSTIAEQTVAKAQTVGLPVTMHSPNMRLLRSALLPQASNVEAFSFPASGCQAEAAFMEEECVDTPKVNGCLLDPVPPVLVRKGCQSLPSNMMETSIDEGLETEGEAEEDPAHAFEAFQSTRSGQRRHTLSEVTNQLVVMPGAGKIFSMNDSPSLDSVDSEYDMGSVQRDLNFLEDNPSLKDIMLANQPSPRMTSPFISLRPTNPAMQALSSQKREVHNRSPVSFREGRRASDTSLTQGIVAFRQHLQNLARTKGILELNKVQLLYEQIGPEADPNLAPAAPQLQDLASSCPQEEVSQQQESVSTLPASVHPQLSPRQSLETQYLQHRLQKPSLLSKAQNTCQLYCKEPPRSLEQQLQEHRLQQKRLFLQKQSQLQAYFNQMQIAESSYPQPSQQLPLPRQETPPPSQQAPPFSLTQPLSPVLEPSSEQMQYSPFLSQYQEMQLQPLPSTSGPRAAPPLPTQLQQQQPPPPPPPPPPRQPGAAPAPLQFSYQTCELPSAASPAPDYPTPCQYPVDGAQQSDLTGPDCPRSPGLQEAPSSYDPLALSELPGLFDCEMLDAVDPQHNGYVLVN

| SMILES | IC50 |
| --- | --- |
| Cc1onc(OC[C@H]2CN(C)CCO2)c1-c1ccn2nc(NC(=O)C3CC3)cc2c1 [Example 79, N-[5-[5-methyl-3-[[(2R)-4-methylmorpholin-2-yl]methoxy]isoxazol-4-yl]pyrazolo[1,5-a]pyridin-2-yl]cyclopropanecarboxamide] | 120 nM |
| Cc1onc(O[C@H]2CNC[C@H]2F)c1-c1ccn2nc(NC(=O)C3CC3)cc2c1 [Example 80, N-[5-[3-[(3S,4R)-4-fluoropyrrolidin-3-yl]oxy-5-methyl-isoxazol-4-yl]pyrazolo[1,5-a]pyridin-2-yl]cyclopropanecarboxamide] | 146 nM |
| Cc1onc(OC[C@]23CN[C@H](CO2)C3)c1-c1ccn2nc(NC(=O)C3CC3)cc2c1 [Example 81, N-[5-[5-methyl-3-[[(1S,4S)-5-oxa-2-azabicyclo[2.2.1]heptan-4-yl]methoxy]isoxazol-4-yl]pyrazolo[1,5-a]pyridin-2-yl]cyclopropanecarboxamide] | 9.7 nM |
| Cc1onc(O[C@H]2CNC[C@@H]2F)c1-c1ccn2nc(NC(=O)C3CC3)cc2c1 [Example 82, N-[5-[3-[(3S,4S)-4-fluoropyrrolidin-3-yl]oxy-5-methyl-isoxazol-4-yl]pyrazolo[1,5-a]pyridin-2-yl]cyclopropanecarboxamide] | 3950 nM |
| Cc1onc(OCC2(F)CNC2)c1-c1ccn2nc(NC(=O)C3CC3)cc2c1 [Example 83, N-[5-[3-[(3-fluoroazetidin-3-yl)methoxy]-5-methyl-isoxazol-4-yl]pyrazolo[1,5-a]pyridin-2-yl]cyclopropanecarboxamide] | 10.9 nM |
| Cc1onc(OCC2(F)CN(C)C2)c1-c1ccn2nc(NC(=O)C3CC3)cc2c1 [Example 84, N-[5-[3-[(3-fluoro-1-methyl-azetidin-3-yl)methoxy]-5-methyl-isoxazol-4-yl]pyrazolo[1,5-a]pyridin-2-yl]cyclopropanecarboxamide] | 204 nM |
| Cc1onc(O[C@@H]2CN[C@H](C)C2)c1-c1ccn2nc(NC(=O)C3CC3)cc2c1 [Example 85, N-[5-[5-methyl-3-[(3S,5R)-5-methylpyrrolidin-3-yl]oxy-isoxazol-4-yl]pyrazolo[1,5-a]pyridin-2-yl]cyclopropanecarboxamide] | 32.1 nM |
| Cc1onc(OC[C@H]2CNCC(C)(C)O2)c1-c1ccn2nc(NC(=O)C3CC3)cc2c1 [Example 86, N-[5-[3-[[(2R)-6,6-dimethylmorpholin-2-yl]methoxy]-5-methyl-isoxazol-4-yl]pyrazolo[1,5-a]pyridin-2-yl]cyclopropanecarboxamide] | 1.3 nM |
| Cc1onc(OC[C@H]2CCN2C)c1-c1ccn2nc(NC(=O)C3CC3)cc2c1 [Example 87, N-[5-[5-methyl-3-[[(2R)-1-methylazetidin-2-yl]methoxy]isoxazol-4-yl]pyrazolo[1,5-a]pyridin-2-yl]cyclopropanecarboxamide] | 16.5 nM |
| CO[C@H]1CNC[C@H]1Oc1noc(C)c1-c1ccn2nc(NC(=O)C3CC3)cc2c1 [Example 88, N-[5-[3-[(3R,4S)-4-methoxypyrrolidin-3-yl]oxy-5-methyl-isoxazol-4-yl]pyrazolo[1,5-a]pyridin-2-yl]cyclopropanecarboxamide] | 11.5 nM |
| Cc1onc(OC[C@H]2NCC2(C)C)c1-c1ccn2nc(NC(=O)C3CC3)cc2c1 [Example 89, N-[5-[3-[[(2S)-3,3-dimethylazetidin-2-yl]methoxy]-5-methyl-isoxazol-4-yl]pyrazolo[1,5-a]pyridin-2-yl]cyclopropanecarboxamide] | 15.9 nM |
| Cc1cc(Nc2cc3cc(-c4c(O[C@@H]5CNC[C@@H]5F)noc4C)ccn3n2)nnc1C [Example 93, N-(5,6-dimethylpyridazin-3-yl)-5-[3-[(3R,4S)-4-fluoropyrrolidin-3-yl]oxy-5-methyl-isoxazol-4-yl]pyrazolo[1,5-a]pyridin-2-amine] | 4.7 nM |
| CO[C@H]1CNC[C@H]1Oc1noc(C)c1-c1ccn2nc(Nc3cc(C)c(C)nn3)cc2c1 [Example 95, N-(5,6-dimethylpyridazin-3-yl)-5-[3-[(3R,4S)-4-methoxypyrrolidin-3-yl]oxy-5-methyl-isoxazol-4-yl]pyrazolo[1,5-a]pyridin-2-amine] | 5.3 nM |
| CN1CC[C@H](Oc2cnn(C)c2-c2ccn3nc(NC(=O)C4CC4)cc3c2)C1 [Example 105, N-[5-[2-methyl-4-[(3S)-1-methylpyrrolidin-3-yl]oxy-pyrazol-3-yl]pyrazolo[1,5-a]pyridin-2-yl]cyclopropanecarboxamide] | 43.1 nM |
| CN1CC[C@@H]1COc1cnn(C)c1-c1ccn2nc(Nc3ccc(C(=O)NCC(C)(C)O)cn3)cc2c1 [Example 106, N-(2-hydroxy-2-methyl-propyl)-6-[[5-[2-methyl-4-[[(2R)-1-methylazetidin-2-yl]methoxy]pyrazol-3-yl]pyrazolo[1,5-a]pyridin-2-yl]amino]pyridine-3-carboxamide] | 2.4 nM |
| COCCNC(=O)c1ccc(Nc2cc3cc(-c4c(OC[C@H]5CCN5C)cnn4C)ccn3n2)nc1 [Example 107, N-(2-methoxyethyl)-6-[[5-[2-methyl-4-[[(2R)-1-methylazetidin-2-yl]methoxy]pyrazol-3-yl]pyrazolo[1,5-a]pyridin-2-yl]amino]pyridine-3-carboxamide] | 3.3 nM |

Other lines, results leading:

| IC50 | SMILES |
| --- | --- |
| 14.4 nM | Cc1cc(Nc2cc3cc(-c4c(O[C@@H]5CN[C@H](C)C5)noc4C)ccn3n2)nc(C)n1 [Example 90, N-(2,6-dimethylpyrimidin-4-yl)-5-[5-methyl-3-[(3S,5R)-5-methylpyrrolidin-3-yl]oxy-isoxazol-4-yl]pyrazolo[1,5-a]pyridin-2-amine] |
| 6.4 nM | Cc1cc(Nc2cc3cc(-c4c(OC[C@H]5CCN5C)noc4C)ccn3n2)nc(C)n1 [Example 91, N-(2,6-dimethylpyrimidin-4-yl)-5-[5-methyl-3-[[(2R)-1-methylazetidin-2-yl]methoxy]isoxazol-4-yl]pyrazolo[1,5-a]pyridin-2-amine] |
| 4.3 nM | Cc1cc(Nc2cc3cc(-c4c(O[C@@H]5CNC[C@@H]5F)noc4C)ccn3n2)nc(C)n1 [Example 92, N-(2,6-dimethylpyrimidin-4-yl)-5-[3-[(3R,4S)-4-fluoropyrrolidin-3-yl]oxy-5-methyl-isoxazol-4-yl]pyrazolo[1,5-a]pyridin-2-amine] |
| 10.3 nM | CO[C@H]1CNC[C@H]1Oc1noc(C)c1-c1ccn2nc(Nc3cc(C)nc(C)n3)cc2c1 [Example 94, N-(2,6-dimethylpyrimidin-4-yl)-5-[3-[(3R,4S)-4-methoxypyrrolidin-3-yl]oxy-5-methyl-isoxazol-4-yl]pyrazolo[1,5-a]pyridin-2-amine] |
| 6.8 nM | CO[C@H]1CNC[C@H]1Oc1cnn(C(F)F)c1-c1ccn2nc(Nc3cc(C)nc(C)n3)cc2c1 [Example 96, 5-[2-(difluoromethyl)-4-[(3R,4S)-4-methoxypyrrolidin-3-yl]oxy-pyrazol-3-yl]-N-(2,6-dimethylpyrimidin-4-yl)pyrazolo[1,5-a]pyridin-2-amine] |
| 2.9 nM | COc1nnc(Nc2cc3cc(-c4c(OC[C@H]5CCN5C)cnn4C(F)F)ccn3n2)cc1C [Example 97, 5-[2-(difluoromethyl)-4-[[(2R)-1-methylazetidin-2-yl]methoxy]pyrazol-3-yl]-N-(6-methoxy-5-methyl-pyridazin-3-yl)pyrazolo[1,5-a]pyridin-2-amine] |
| 7.9 nM | Cc1ccc(Nc2cc3cc(-c4c(OC[C@H]5CCN5C)cnn4C(F)F)ccn3n2)nn1 [Example 98, 5-[2-(difluoromethyl)-4-[[(2R)-1-methylazetidin-2-yl]methoxy]pyrazol-3-yl]-N-(6-methylpyridazin-3-yl)pyrazolo[1,5-a]pyridin-2-amine] |
| 10.9 nM | Cc1cc(Nc2cc3cc(-c4c(OC[C@H]5OCC[C@@H]5O)cnn4C(F)F)ccn3n2)nc(C)n1 [Example 99, (2R,3S)-2-[[1-(difluoromethyl)-5-[2-[(2,6-dimethylpyrimidin-4-yl)amino]pyrazolo[1,5-a]pyridin-5-yl]pyrazol-4-yl]oxymethyl]tetrahydrofuran-3-ol] |
| < 0.847 nM | Cc1cc(Nc2cc3cc(-c4c(OC[C@H]5CCN5C)cnn4C)ccn3n2)nc(C(F)F)n1 [Example 102, N-[2-(difluoromethyl)-6-methyl-pyrimidin-4-yl]-5-[2-methyl-4-[[(2R)-1-methylazetidin-2-yl]methoxy]pyrazol-3-yl]pyrazolo[1,5-a]pyridin-2-amine] |
| < 0.847 nM | CCN1CC[C@@H]1COc1cnn(C)c1-c1ccn2nc(Nc3cc(C)nc(C(F)F)n3)cc2c1 [Example 103, N-[2-(difluoromethyl)-6-methyl-pyrimidin-4-yl]-5-[4-[[(2R)-1-ethylazetidin-2-yl]methoxy]-2-methyl-pyrazol-3-yl]pyrazolo[1,5-a]pyridin-2-amine] |
| 16.9 nM | CCN1CC[C@@H]1COc1cnn(C(F)F)c1-c1ccn2nc(Nc3cnn(C)c3)cc2c1 [Example 104, 5-[2-(difluoromethyl)-4-[[(2R)-1-ethylazetidin-2-yl]methoxy]pyrazol-3-yl]-N-(1-methylpyrazol-4-yl)pyrazolo[1,5-a]pyridin-2-amine] |
| 3.3 nM | Cc1nc(Nc2cc3cc(-c4c(OC[C@H]5CCN5C)cnn4C)ccn3n2)cc(C(=O)N(C)C)n1 [Example 108, N,N,2-trimethyl-6-[[5-[2-methyl-4-[[(2R)-1-methylazetidin-2-yl]methoxy]pyrazol-3-yl]pyrazolo[1,5-a]pyridin-2-yl]amino]pyrimidine-4-carboxamide] |
| 6.2 nM | CNC(=O)c1nc(C)cc(Nc2cc3cc(-c4c(OC[C@H]5CCN5C)cnn4C)ccn3n2)n1 [Example 109, N,4-dimethyl-6-[[5-[2-methyl-4-[[(2R)-1-methylazetidin-2-yl]methoxy]pyrazol-3-yl]pyrazolo[1,5-a]pyridin-2-yl]amino]pyrimidine-2-carboxamide] |
| 2.8 nM | Cc1cc(Nc2cc3cc(-c4c(OC[C@H]5CCN5C)cnn4C)ccn3n2)nc(C(=O)N(C)C)n1 [Example 110, N,N,4-trimethyl-6-[[5-[2-methyl-4-[[(2R)-1-methylazetidin-2-yl]methoxy]pyrazol-3-yl]pyrazolo[1,5-a]pyridin-2-yl]amino]pyrimidine-2-carboxamide] |
